{
  "source": "patent US20080241816A1",
  "about": "“Method for Stabilizing Oxidizable Color Developing Reagent” (DAIICHI PURE CHEMICALS CO., LTD, priority 2004, published 2008)",
  "key": {"[1]": {"assay": "Stabilization Test 2 for TPM-PS (storage at 25° C. for 10 days, absorbance at 600 nm)", "type": "physicochemical", "conditions": "for Variation over 10 days (OD): 600 nm", "protocol": "TPM-PS was dissolved in each of the aqueous solutions described below so as to attain a concentration of 100 μM, and absorbance was measured at 600 nm. After each sample was stored at 25° C. for 10 days, absorbance was again measured at 600 nm."}, "[2]": {"assay": "Stabilization Test 1 for TPM-PS (storage at 37° C., absorbance at 600 nm)", "type": "physicochemical", "conditions": "for absorbance at 600 nm, 2-Week storage / absorbance at 600 nm, 3-Week storage / absorbance at 600 nm, Time 0: 37° C.; for absorbance at 600 nm, Time 0: time 0 (start)", "protocol": "TPM-PS was dissolved in each of the aqueous solutions described below so as to attain a concentration of 60 μM, and stored at 37° C. Subsequently, absorbance was measured at 600 nm by means of an automated analyzer (Model 7150; product of Hitachi, Ltd.)."}, "[3]": {"conditions": "60 μM in 5 mM Citric acid (pH 2.8)"}, "[4]": {"conditions": "60 μM in 5 mM Maleic acid (pH 2.5)"}, "[5]": {"conditions": "60 μM in 5 mM Tartaric acid (pH 2.8)"}},
  "data": [
    {"smiles": "O=S(=O)(O)CCCN(CCCS(=O)(=O)O)c1ccc(C(c2ccc(N(CCCS(=O)(=O)O)CCCS(=O)(=O)O)cc2)c2ccc(N(CCCS(=O)(=O)O)CCCS(=O)(=O)O)cc2)cc1", "note": "[TPM-PS, N,N,N′,N′,N″,N″-hexa-3-sulfopropyl-4,4′,4″-triaminotriphenylmethane]", "values": [
      {"measurement": "Variation over 10 days (OD)", "setting": "[1]; 100 μM in 100 mM Citrate buffer, pH 3, 25° C.", "result": "−0.01", "unit": "OD"},
      {"measurement": "Variation over 10 days (OD)", "setting": "[1]; 100 μM in 100 mM Citrate buffer, pH 4, 25° C.", "result": 0.08, "unit": "OD"},
      {"measurement": "Variation over 10 days (OD)", "setting": "[1]; 100 μM in 100 mM Citrate buffer, pH 5, 25° C.", "result": 0.15, "unit": "OD"},
      {"measurement": "Variation over 10 days (OD)", "setting": "[1]; 100 μM in 100 mM Glycine-HCl, pH 2, 25° C.", "result": 0.00, "unit": "OD"},
      {"measurement": "Variation over 10 days (OD)", "setting": "[1]; 100 μM in 100 mM Glycine-HCl, pH 3, 25° C.", "result": "−0.01", "unit": "OD"},
      {"measurement": "Variation over 10 days (OD)", "setting": "[1]; 100 μM in 100 mM Potassium phosphate buffer, pH 6, 25° C.", "result": 0.22, "unit": "OD"},
      {"measurement": "Variation over 10 days (OD)", "setting": "[1]; 100 μM in 100 mM Potassium phosphate buffer, pH 7, 25° C.", "result": 0.16, "unit": "OD"},
      {"measurement": "Variation over 10 days (OD)", "setting": "[1]; 100 μM in 100 mM Potassium phosphate buffer, pH 8, 25° C.", "result": 0.17, "unit": "OD"},
      {"measurement": "Variation over 10 days (OD)", "setting": "[1]; 100 μM in Control (purified water), pH Not regulated, 25° C.", "result": 0.22, "unit": "OD"},
      {"measurement": "Variation over 10 days (OD)", "setting": "[1]; 100 μM in HCl—KCl, pH 1, 25° C.", "result": "−0.01", "unit": "OD"},
      {"measurement": "Variation over 10 days (OD)", "setting": "[1]; 100 μM in HCl—KCl, pH 2, 25° C.", "result": 0.01, "unit": "OD"},
      {"measurement": "absorbance variation / storage stability", "setting": "[1]; aqueous solution of pH 1 to 5, 25° C., 10 days", "result": "stably stored"},
      {"measurement": "absorbance at 600 nm, 2-Week storage", "setting": "[2]; [3]", "result": 0.057},
      {"measurement": "absorbance at 600 nm, 3-Week storage", "setting": "[2]; [3]", "result": 0.080},
      {"measurement": "absorbance at 600 nm, Time 0", "setting": "[2]; [3]", "result": 0.022},
      {"measurement": "absorbance at 600 nm, 2-Week storage", "setting": "[2]; [4]", "result": 0.050},
      {"measurement": "absorbance at 600 nm, 3-Week storage", "setting": "[2]; [4]", "result": 0.072},
      {"measurement": "absorbance at 600 nm, Time 0", "setting": "[2]; [4]", "result": 0.023},
      {"measurement": "absorbance at 600 nm, 2-Week storage", "setting": "[2]; [5]", "result": 0.064},
      {"measurement": "absorbance at 600 nm, 3-Week storage", "setting": "[2]; [5]", "result": 0.088},
      {"measurement": "absorbance at 600 nm, Time 0", "setting": "[2]; [5]", "result": 0.024},
      {"measurement": "absorbance at 600 nm, 2-Week storage", "setting": "[2]; 60 μM in 20 mM PB-K (pH 8)", "result": 0.132},
      {"measurement": "absorbance at 600 nm, 3-Week storage", "setting": "[2]; 60 μM in 20 mM PB-K (pH 8)", "result": 0.215},
      {"measurement": "absorbance at 600 nm, Time 0", "setting": "[2]; 60 μM in 20 mM PB-K (pH 8)", "result": 0.023},
      {"measurement": "nonspecific color development / stability in solution", "setting": "[2]; aqueous solutions of pH 1 to 5, 37° C.", "result": "suppressed effectively"}
    ]}
  ]
}
